Series [1] can be described thus: Preliminary toxicology studies.
For series [2] the following is noted: rat, in vivo, inhaled or intranasal.
Procedure: (§1) The specific activity was 50 Ci/mmol. The purity and identity of NAP was ascertained using high performance liquid chromatography (HPLC) Zorbax SB-C18 (250×4.6 mm) 5 μm, and elution with a 5-25% methanol gradient in 0.1% trifluoroacetic acid over 20 minutes and detection by UV at 220 nm and [^3H] detector β-Ram. Two and half microliter of a solution containing 1 mCi/ml were applied to each nostril of a (200-300 g) male Wistar rat. At designated time points, rats were sacrificed and tissues solubilized (100 mg in one ml Luma Solve, Lumac by., Landgraaf, Netherlands, Netherlands) at 55° C. for 12 hours. Radioactivity was determined following the addition of Optiflour (10 ml/100 mg, Packard, Groningen, Netherlands) in a beta scintillation counter.
(§2) For determination of intact NAP in the brain, cortical tissue was homogenized with phosphate buffered saline (PBS) at 4° C. (100 mg/1 ml) and the homogenate was submitted to a 10,000 g centrifugation (10 min.) at 4° C. The resulting supernatant was frozen at −80° C. and further subjected to HPLC (RP-18, Merck, 250×4 mm; 5 μm), employing a linear gradient established between 35% acetonitrile and 75% acetonitrile in water containing 0.1% trifluoroacetic acid (Gozes et al., Proc. Nati. Acad. Sci. U.S.A. 96:4143-4148 (1999)).
For series [3] the following is noted: rat.
Procedure: as §1, §2
For series [4], the system named is neuroblastoma cell. As to conditions: buthionine sulfoximine induced; cited from earlier work.
Series [5] in a line: Biodistribution and intactness of [3H]-NAP following intranasal administration.
Procedure: as §1, §2
Series [6] relates to C57-B16J mice. Kind of series: Morris water maze in male offspring after prenatal treatment of pregnant mice. As to conditions: vs vehicle; for Latency to find the hidden platform, prenatal oral single peptide 40 μg: gavage on pregnancy day 8, 40 μg. The format is in vivo, mouse. The procedure: C57-B16J female mice (Jackson Labs) were kept under a 12 h light, 12 h dark regimen with food and water available at all times. The mice received humane animal care in compliance with the “Guideline for Care and Use of Experimental Animals.” Six week old females (21-24 grams) were mated with C57-B16J males for 4 h. The presence of a vaginal plug was considered day 0 pregnancy.
Animals were injected intraperitoneally on pregnancy day 8, or treated on pregnancy day 8 after 1 hour fast with gavage dose of ADNF polypeptides. NAP was diluted in 50 μl DMSO and diluted in filtered Dulbecco 's phosphate buffered saline (DPBS). SAL was dissolved and diluted in filtered DPBS. Control animals were treated with a vehicle (i.e., DPBS). All treatments were coded.
Delivery occurred on day 20, weaning on day 20 of life. Male offspring were eartagged with all identifying markers of coded treatments removed.
Only male mice were used for the water maze trials. Testing of mice began at 35-50 days, typically on day 38, twice daily (two trials) for 7 days.
Morris water maze test used is adapted from “repeated acquisition of a spatial navigation task in mice: Effects of spacing of trials and of unilateral middle cerebral artery occlusion” Klapdor & Van der Staay, Physiology & Behav. 63(5):903-909 (1998). A trial consists of attempting to find the hidden platform from 4 set points. Specifically, testing of mice began in the mornings, typically between 9 and 9:30. Consistent timing is important to any behavioral study. Testing of mice was performed in a random order to prevent chronological bias by the researcher. Maze was set up the day before, to allow water time to adjust to room temperature. 100-150 ml of non-toxic white tempura is added and mixed. […]
On days 2-7, mice are only given 15 seconds on the platform before the initial trial. […] The daily average escape latency is calculated and plotted along the 7 day period for test administration. […]

The test system of series [7] is AF64A-treated rats. Kind of series: Water maze (two daily tests, hidden platform) in AF64A cholinotoxicity rats, intranasal peptide. The class given is in vivo, rat. As to conditions: 1 μg peptide intranasal daily, vs AF64A-vehicle. The procedure: Rats were subjected to two daily tests in a water maze, including a hidden platform (Morris, R., J. Neurosci. Methods 11:47-60 (1984); Gordon et al., Neurosci. Lett. 199:1-4 (1995); Gozes et al., J Neurobiol. 33:329-342. (1997a)). Every day for the first test, both the platform and the animal were situated in a new location with regards to the pool (with the pool being immobile).
The experiment was performed as follows: the animal was positioned on the platform for 0.5 min., then placed in the water. The time required to reach the platform (indicative of learning and intact reference memory) was measured (first test). […] The time required to reach the platform in the second trial was recorded, indicative of short-term (working) memory. […]
After a week of peptide treatment, the animals were subjected to two daily tests in the water maze (as above). […] To avoid bias related to changes in motor activity in the various treatment groups, a probe trial test that assessed spatial memory was also utilized as follows. After four days of training and testing, the platform was removed and on day 5 the animals were subjected to swimming in the pool (120 sec) without the platform; in these experiments, the time spent in the quadrant of the pool where the platform used to be was recorded. […]

For series [8], the system named is AF64A-treated rats. The experiment in a line: Probe trial (platform removed, time in platform quadrant) in rats. The format is in vivo, rat. As to conditions: AF64A-treated rats given peptide intranasally vs AF64A-vehicle, 120 sec swim, p<0.001. The source says: After a week of peptide treatment, the animals were subjected to two daily tests in the water maze (as above). During the test-period, animals were also given an intranasal administration of peptide or vehicle (carrier) an hour before the daily tests. To avoid bias related to changes in motor activity in the various treatment groups, a probe trial test that assessed spatial memory was also utilized as follows. After four days of training and testing, the platform was removed and on day 5 the animals were subjected to swimming in the pool (120 sec) without the platform; in these experiments, the time spent in the quadrant of the pool where the platform used to be was recorded. Measurements were performed using the HVS video tracking system (HVS Image Ltd. Hampton, UK).

Series [9] relates to apolipoprotein E-deficient mice. As to conditions: injection to newborn mice, short-term memory in three-week-old pups; cited from earlier work.
The conditions of series [10]: storage at temperatures <4° C.; cited from earlier work.

Square brackets hold non-standard residues; d marks the D form. Ends that are not written are not given here.

For orientation: half-life means the time needed for the level to fall by half in the phase considered. As for `CC[C@H](C)[C@H](NC(=O)[C@H](CO)NC(=O)[C@@H](NC(=O)[C@@H]1CCCN1C(=O)[C@H](C)NC(=O)[C@@H](N)CC(N)=O)C(C)C)C(=O)N1CCC[C@H]1C(=O)N[C@@H](CCC(N)=O)C(=O)O` [NAP, Asn-Ala-Pro-Val-Ser-Ile-Pro-Gln], the Toxic effects entry in series [1] is “no toxic effects”. This molecule gave a half-life in series [2] of about 15 min. Moreover, the “In vivo metabolism by HPLC analysis” value in series [3] is “metabolized in vivo to multiple fragments”. Also, in [3] (in vivo), the “Fraction of material intact in the brain, 30 min” value is reported as “at least 12%”; the “Total material eluted from the HPLC column, cortex, 30 min” value is recorded as 807.8 fmole/g tissue; the “Total material eluted from the HPLC column, cortex, 60 min” value is 1198.9 fmoles/g tissue.
For `CCCCS(=N)(=O)CCC(N)C(=O)O` (stereo not drawn) [buthionine sulfoximine, Buthionine sulfoximine], the “Decrease in neuroblastoma cell viability” value in series [4] is 70-90%.
In the case of NAP, propyl 3-3,4-[^3H] [[^3H]-NAP], in series [5] (following intranasal administration), the “Time of highest total radioactivity in the brain (cortex)” value was found to be 60 min. The “Radioactivity found (calculated as NAP per g tissue)” value in series [5] (intranasal 22.75 pmole per rat, compared with 91 fmoles/g assumed for homogeneous distribution) is on record as 45 fmoles/g tissue. The “Organ distribution of total radioactivity” value in [5] (intranasal [3H]-NAP, thirty minutes after administration) is on record as “highest levels in the intestine”.
In the case of “D-NAP: NAP (NAPVSIPQ) made of D-amino acids, for oral administration”, the “Latency to find the hidden platform, prenatal oral single peptide 40 μg” value in [6] was “trend of faster latencies”.
For SALLRSIPA [ADNF-9], the “Latency to reach the hidden platform, first daily test (reference memory)” value in [7] (NAP difference on fourth day of testing (p<0.041)) is reported as “apparent insignificant improvement”. In series [7] (p<0.001), the “Latency to reach the hidden platform, second daily test (short-term memory)” value was “significant improvements and reduced latencies”. For the same molecule, in [8], the “Time spent in the quadrant of the pool where the platform was previously positioned (probe trial, day 5)” value is recorded as “significantly increased”. For the same molecule, the “Amelioration/prevention of memory deficits in apolipoprotein E-deficient mice” value in [9] was “less effective than NAP”. The “Biological activity of PBS solutions upon storage” value in series [10] is on record as “lost biological activity”.
As to “D-SAL: SAL (SALLRSIPA) made of D-amino acids, for oral administration ([dS][dA][dL][dL][dR][dS][dI][dP][dA])”, the “Latency to find the hidden platform, prenatal oral single peptide 40 μg” value in [6] was “trend of faster latencies”. For the same molecule, in [6] (gavage on pregnancy day 8, 80 μg), the “Latency to find the hidden platform, prenatal oral double dose 80 μg” value is recorded as “perform similarly to the control animals”.

The values above are taken from patent US7427598B2, “Post-natal administration of activity-dependent neurotrophic factor-derived polypeptides for enhancing learning and memory” (The United States of Americas as represented by the …, priority 2001, dated 2008).
